Tests used:
¹²⁵I-labelled E1 [1] = assay: Radioimmunoassay: effect of α₁-antitrypsin or α₂-macroglobulin on the binding rate of anti-E1 serum with ¹²⁵I-labelled E1; parameters: species or system human
Procedure: (§1) As for measuring buffer solution, 0.01 M phosphate buffer (pH 7.4) containing 0.1 mM Boc-TACK, 0.9% sodium chloride, 0.05% sodium azide and 0.2% bovine serum albumin was used unless otherwise mentioned. One hundred µl of standard E1 solution (0.5 - 50ng/ml) or sample serum was taken into a polystyrene tube. To this were added 100 µl each of ¹²⁵I-labelled E1 solution and anti-E1 serum, which was then mixed and incubated for 3 hours at 37°C. Next, 500 µl of the preparation of the second antibody was added, which was mixed and incubated for 30 minutes at 37°C. The incubated product was centrifuged (3000 rpm, 5 minutes), after which the supernatant was removed by suction and the radioactivity of the precipitate was measured.
Radioimmunoassay was performed using α₁-antitrypsin or α₂-macroglobulin solution in place of the standard E1 solution, whereby the effect of these on the binding rate was examined. As for measuring buffer solution, one mentioned in above-mentioned (7) was used in one method (A method), and one not containing Boc-TACK was used in another method (B method), and one containing PMSF in place of Boc-TACK was used in third method (C method) (Fig. 2).

¹²⁵I-labelled E1 [2] = assay: Gel filtration: binding of serum inhibitor to ¹²⁵I-labelled E1 in human serum; settings: 30 minutes at 37°C, Ultrogel AcA 44, ¹²⁵I-labelled E1 treated with the inhibitor
Procedure: To human serum was added ¹²⁵I-labelled E1, which was incubated for 30 minutes at 37°C. This was then subjected to gel filtration [Ultrogel AcA 44 (made by IBF Biotechnichs), ⌀ 1.5 x 55cm, developing solution: 0.1 M phosphate buffer (pH 7.1)]. The eluate was collected in 1-ml portions and the radioactivity in each fraction was measured.
When the human serum to which ¹²⁵I-labelled E1 not treated with Boc-TACK had been added was subjected to gel filtration, the ¹²⁵I-labelled E1 was all eluted in the fraction of its complex containing α₁-antitrypsin and α₂-macroglobulin (Fig. 1-a).

E1 = assay: Radioimmunoassay standard curves of Boc-TACK-treated E1 and untreated E1; assay type: binding, human; settings: standard curve of Boc-TACK-treated E1 compared with untreated E1
Procedure: as §1
To evaluate the effect of Boc-TACK on the immunological reaction of E1, standard curves were drawn of Boc-TACK-treated E1 and untreated E1, and then comparison was made between the two.

elastase-1 = settings: prior art statement; cited from earlier work

Compound | binding rate with increases in serum inhibitor (¹²⁵I-labelled E1 [1]; α₁-antitrypsin or α₂-macroglobulin solution in place of standard E1, inhibitor in measuring buffer solution) | binding rate with α₂-macroglobulin in a high concentration (¹²⁵I-labelled E1 [1]; α₂-macroglobulin in a high concentration, 0.1 mM Boc-TACK in measuring buffer solution) | elution of ¹²⁵I-labelled E1 in free fraction or complex fraction (¹²⁵I-labelled E1 [2]) | effect on the immunological reaction of E1 (E1) | capability of inhibiting the binding of α₁-antitrypsin and α₂-macroglobulin to elastase-1 (elastase-1)
CC(NC(=O)[C@H](C)NC(=O)[C@H](C)NC(=O)OC(C)(C)C)C(=O)CCl (some centres unmarked) [Boc-TACK, Nα-[N-(tert-butoxycarbonyl)alanyl]-N-(3-chloro-1-methyl-2-oxopropyl)alanineamide] | little change was observed in the binding rate | only a slight decrease | none of it was found in the complex fraction | did not affect the immunological reaction of E1 in any way | –
O=S(=O)(F)Cc1ccccc1 [PMSF, phenylmethanesulfonyl fluoride] | – | – | – | – | weak capability

Source: EP0398621A2, “Immunoassay of elastase-1” (SHIONOGI SEIYAKU KABUSHIKI KAISHA trading under the name of …, priority 1989, dated 1990)
